Experimental data from the supplement of paper PMC10307832.

Experiments:
Experiment in all cases: relative viability (nuclei count vs DMSO), 5 days (fraction); higher = more cells survive
201T = system: 201T
Procedure, shortened: (§1)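 Cells from lung cancer lines were seeded into 1536-well plates and, one day later, dosed by pin tool. Treatments were either a single drug or a fixed dose of an anchor drug with five library-drug doses (not always all listed) in √10 steps. After 5 days, nuclei were stained in a one-step fixation (final 0.05% Triton X-100, 1% formaldehyde, 1 ug/ml Hoechst) and counted on 4× images, and relative viability is the treated-to-vehicle nuclei ratio, as the median of duplicate plates.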

NCI-H441 = system: NCI-H441
Procedure, shortened: as §1

PC-14 = system: PC-14
Procedure, shortened: as §1

NCI-H520 = system: NCI-H520
Procedure, shortened: as §1

LOU-NH91 = system: LOU-NH91
Procedure, shortened: as §1

H3255 = system: H3255
Procedure, shortened: as §1

NCI-H647 = system: NCI-H647
Procedure, shortened: as §1

NCI-H3122 = system: NCI-H3122
Procedure, shortened: as §1

NCI-H322M = system: NCI-H322M
Procedure, shortened: as §1

NCI-H1793 = system: NCI-H1793
Procedure, shortened: as §1

EPLC-272H = system: EPLC-272H
Procedure, shortened: as §1

COR-L23 = system: COR-L23
Procedure, shortened: as §1

UMC-11 = system: UMC-11
Procedure, shortened: as §1

NCI-H2405 = system: NCI-H2405
Procedure, shortened: as §1

NCI-H1650 = system: NCI-H1650
Procedure, shortened: as §1

HCC-15 = system: HCC-15
Procedure, shortened: as §1

NCI-H2170 = system: NCI-H2170
Procedure, shortened: as §1

NCI-H1734 = system: NCI-H1734
Procedure, shortened: as §1

NCI-H2023 = system: NCI-H2023
Procedure, shortened: as §1

NCI-H2347 = system: NCI-H2347
Procedure, shortened: as §1

Compound `CCN(CC)CCCCNc1ncc2cc(-c3cc(OC)cc(OC)c3)c(NC(=O)NC(C)(C)C)nc2n1` + CC1(C)CCC(c2ccc(Cl)cc2)=C(CN2CCN(c3ccc(C(=O)NS(=O)(=O)c4ccc(N[C@H](CCN5CCOCC5)CSc5ccccc5)c(S(=O)(=O)C(F)(F)F)c4)cc3)CC2)C1 [Navitoclax] (partner 0.5 µM) has a relative viability (201T; first compound 0.01 µM) of 1.17, a relative viability (201T; first compound 0.03162 µM) of 1.21 and a relative viability (201T; first compound 0.1 µM) of 1.24. The relative viability (201T; first compound 0.3162 µM) was 1.23, the relative viability (201T; first compound 1 µM) was 1.19 and the relative viability (NCI-H441; first compound 0.01 µM) was 0.547. For the same compound, the relative viability (NCI-H441; first compound 0.03162 µM) was 0.714, the relative viability (NCI-H441; first compound 0.1 µM) was 1.2 and the relative viability (NCI-H441; first compound 0.3162 µM) was 0.827. It also gave a relative viability (NCI-H441; first compound 1 µM) of 0.618, a relative viability (PC-14; first compound 0.01 µM) of 1.11 and a relative viability (PC-14; first compound 0.03162 µM) of 1.06. The relative viability (PC-14; first compound 0.1 µM) was 1.15, the relative viability (PC-14; first compound 0.3162 µM) was 1.01 and the relative viability (PC-14; first compound 1 µM) was 0.985. For the same compound, the relative viability (NCI-H520; first compound 0.01 µM) was 1.08, the relative viability (NCI-H520; first compound 0.03162 µM) was 1.08 and the relative viability (NCI-H520; first compound 0.1 µM) was 1.31. For the same compound, the relative viability (NCI-H520; first compound 0.3162 µM) was 1.09, the relative viability (NCI-H520; first compound 1 µM) was 0.419 and the relative viability (LOU-NH91; first compound 0.01 µM) was 0.611. The relative viability (LOU-NH91; first compound 0.03162 µM) was 0.674, the relative viability (LOU-NH91; first compound 0.1 µM) was 0.718 and the relative viability (LOU-NH91; first compound 0.3162 µM) was 0.795. It also gave a relative viability (LOU-NH91; first compound 1 µM) of 0.722, a relative viability (H3255; first compound 0.01 µM) of 0.496 and a relative viability (H3255; first compound 0.03162 µM) of 0.413. It also gave a relative viability (H3255; first compound 0.1 µM) of 0.65, a relative viability (H3255; first compound 0.3162 µM) of 0.729 and a relative viability (H3255; first compound 1 µM) of 0.502. For the same compound, the relative viability (NCI-H647; first compound 0.01 µM) was 1.12, the relative viability (NCI-H647; first compound 0.03162 µM) was 1.14 and the relative viability (NCI-H647; first compound 0.1 µM) was 1.41. It also gave a relative viability (NCI-H647; first compound 0.3162 µM) of 1.21, a relative viability (NCI-H647; first compound 1 µM) of 0.929 and a relative viability (NCI-H3122; first compound 0.01 µM) of 1.02. The relative viability (NCI-H3122; first compound 0.03162 µM) was 1.06, the relative viability (NCI-H3122; first compound 0.1 µM) was 1.06 and the relative viability (NCI-H3122; first compound 0.3162 µM) was 1.03. For the same compound, the relative viability (NCI-H3122; first compound 1 µM) was 1.07, the relative viability (NCI-H322M; first compound 0.01 µM) was 1.26 and the relative viability (NCI-H322M; first compound 0.03162 µM) was 1.29. The relative viability (NCI-H322M; first compound 0.1 µM) was 1.23, the relative viability (NCI-H322M; first compound 0.3162 µM) was 1.22 and the relative viability (NCI-H322M; first compound 1 µM) was 1.2. It also gave a relative viability (NCI-H1793; first compound 0.01 µM) of 0.988, a relative viability (NCI-H1793; first compound 0.1 µM) of 0.326 and a relative viability (NCI-H1793; first compound 0.3162 µM) of 0.439. For the same compound, the relative viability (NCI-H1793; first compound 1 µM) was 0.326, the relative viability (EPLC-272H; first compound 0.01 µM) was 1.14 and the relative viability (EPLC-272H; first compound 0.1 µM) was 1.07. For the same compound, the relative viability (EPLC-272H; first compound 0.3162 µM) was 1.29, the relative viability (EPLC-272H; first compound 1 µM) was 0.995 and the relative viability (COR-L23; first compound 0.01 µM) was 1.14. For the same compound, the relative viability (COR-L23; first compound 0.03162 µM) was 1.12, the relative viability (COR-L23; first compound 0.1 µM) was 1.33 and the relative viability (COR-L23; first compound 0.3162 µM) was 1.18. For the same compound, the relative viability (COR-L23; first compound 1 µM) was 1.12, the relative viability (UMC-11; first compound 0.01 µM) was 0.303 and the relative viability (UMC-11; first compound 0.03162 µM) was 0.293. It also gave a relative viability (UMC-11; first compound 0.1 µM) of 0.318, a relative viability (UMC-11; first compound 0.3162 µM) of 0.318 and a relative viability (UMC-11; first compound 1 µM) of 0.308. For the same compound, the relative viability (NCI-H2405; first compound 0.01 µM) was 0.707, the relative viability (NCI-H2405; first compound 0.03162 µM) was 0.772 and the relative viability (NCI-H2405; first compound 0.1 µM) was 0.853. For the same compound, the relative viability (NCI-H2405; first compound 0.3162 µM) was 0.901, the relative viability (NCI-H2405; first compound 1 µM) was 0.789 and the relative viability (NCI-H1650; first compound 0.01 µM) was 1.12. The relative viability (NCI-H1650; first compound 0.03162 µM) was 1.03, the relative viability (NCI-H1650; first compound 0.1 µM) was 1.17 and the relative viability (NCI-H1650; first compound 0.3162 µM) was 0.784. It also gave a relative viability (NCI-H1650; first compound 1 µM) of 0.7, a relative viability (HCC-15; first compound 0.01 µM) of 0.748 and a relative viability (HCC-15; first compound 0.03162 µM) of 0.724. For the same compound, the relative viability (HCC-15; first compound 0.1 µM) was 0.859, the relative viability (HCC-15; first compound 0.3162 µM) was 0.784 and the relative viability (HCC-15; first compound 1 µM) was 0.7. It also gave a relative viability (NCI-H2170; first compound 0.01 µM) of 0.586, a relative viability (NCI-H2170; first compound 0.03162 µM) of 0.75 and a relative viability (NCI-H2170; first compound 0.1 µM) of 0.558. The relative viability (NCI-H2170; first compound 0.3162 µM) was 0.641, the relative viability (NCI-H2170; first compound 1 µM) was 0.528 and the relative viability (NCI-H1734; first compound 0.01 µM) was 0.971. The relative viability (NCI-H1734; first compound 0.03162 µM) was 0.863, the relative viability (NCI-H1734; first compound 0.1 µM) was 0.824 and the relative viability (NCI-H1734; first compound 0.3162 µM) was 1.03. The relative viability (NCI-H1734; first compound 1 µM) was 0.761, the relative viability (NCI-H2023; first compound 0.01 µM) was 1.04 and the relative viability (NCI-H2023; first compound 0.03162 µM) was 0.997. It also gave a relative viability (NCI-H2023; first compound 0.1 µM) of 1, a relative viability (NCI-H2023; first compound 0.3162 µM) of 1.04 and a relative viability (NCI-H2023; first compound 1 µM) of 0.823. The relative viability (NCI-H2347; first compound 0.01 µM) was 0.817, the relative viability (NCI-H2347; first compound 0.03162 µM) was 0.823 and the relative viability (NCI-H2347; first compound 0.1 µM) was 0.762. The relative viability (NCI-H2347; first compound 0.3162 µM) was 0.833 and the relative viability (NCI-H2347; first compound 1 µM) was 0.676.
